Results from patent publication US7271165B2, “Rifamycin analogs and uses thereof” (priority 2003, dated 2007).
Values after ≈ are worked out from the molar mass of the structure shown.

How the values were obtained:
E. faecalis = experiment: MIC assay, E. faecalis; format: cell-based, Enterococcus faecalis
H. flu = format: cell-based, H. influenza; settings: H. flu
S. aureus = experiment: MIC assay, S. aureus; format: cell-based, Staphylococcus aureus
S. pneumo. = experiment: MIC assay, S. pneumo.; format: cell-based, Streptococcus pneumoniae
E coli = experiment: MIC assay, E coli; format: cell-based

| SMILES | MIC (μg/mL) E. faecalis (E. faecalis) | MIC (μg/mL) H. flu (H. flu) | MIC (μg/mL) S. aureus (S. aureus) | MIC (μg/mL) S. pneumo. (S. pneumo.) | MIC (μg/mL) E coli (E coli) |
| --- | --- | --- | --- | --- | --- |
| CCOC(=O)NCC1CCN(c2cc(O)c3nc4c5c6c7c(C)c(O)c5c(=O)c(c-4oc3c2)NC(=O)C(C)=CC=CC(C)C(O)C(C)C(O)C(C)C(O)C(C)C(OC)C=COC(C)(O7)C6=O)CC1 (centres unmarked) [Compound 60, 25-O-deacetyl-3′-hydroxy-5′-[4-ethylcarbamylmethyl-1-piperidinyl]benzoxazinorifamycin] | 0.5 µg/mL (≈ 0.53 µM) | 0.06 µg/mL (≈ 0.0636 µM) | 0.008 µg/mL (≈ 0.00848 µM) | 0.0005 µg/mL (≈ 0.00053 µM) | >8 µg/mL |
| COC1C=COC2(C)Oc3c(C)c(O)c4c(=O)c(c5oc6cc(N7CCC(CCO)CC7)cc(O)c6nc-5c4c3C2=O)NC(=O)C(C)=CC=CC(C)C(O)C(C)C(O)C(C)C(OC(C)=O)C1C (centres unmarked) [Compound 61, 3′-hydroxy-5′-[4-(2-hydroxyethyl)-1-piperidinyl]benzoxazinorifamycin] | 1 µg/mL (≈ 1.08 µM) | 0.25 µg/mL (≈ 0.269 µM) | 0.004 µg/mL (≈ 0.00431 µM) | 0.00012 µg/mL (≈ 0.000129 µM) | >8 µg/mL |
| COC1C=COC2(C)Oc3c(C)c(O)c4c(=O)c(c5oc6cc(N7CCC(c8ccccc8)CC7)cc(O)c6nc-5c4c3C2=O)NC(=O)C(C)=CC=CC(C)C(O)C(C)C(O)C(C)C(O)C1C (centres unmarked) [Compound 62, 25-O-deacetyl-3′-hydroxy-5′-[4-phenyl-1-piperidinyl]benzoxazinorifamycin] | 8 µg/mL (≈ 8.71 µM) | 0.5 µg/mL (≈ 0.545 µM) | 0.015 µg/mL (≈ 0.0163 µM) | 0.008 µg/mL (≈ 0.00871 µM) | >8 µg/mL |
| COCCOC(=O)NC1CCN(c2cc(O)c3nc4c5c6c7c(C)c(O)c5c(=O)c(c-4oc3c2)NC(=O)C(C)=CC=CC(C)C(O)C(C)C(O)C(C)C(O)C(C)C(OC)C=COC(C)(O7)C6=O)CC1 (centres unmarked) [Compound 63, 25-O-deacetyl-3′-hydroxy-5′-[4-methoxyethylcarbamyl-1-piperidinyl]benzoxazinorifamycin] | 1 µg/mL (≈ 1.04 µM) | 0.25 µg/mL (≈ 0.261 µM) | 0.008 µg/mL (≈ 0.00834 µM) | 0.002 µg/mL (≈ 0.00209 µM) | 8 µg/mL (≈ 8.34 µM) |
| COC1C=COC2(C)Oc3c(C)c(O)c4c(=O)c(c5sc6cc(N7CC(C)NC(C)C7)ccc6nc-5c4c3C2=O)NC(=O)C(C)=CC=CC(C)C(O)C(C)C(O)C(C)C(OC(C)=O)C1C [Compound 64, 5′-[(3R,5S)-3,5-dimethyl-1-piperazinyl]benzthiazinorifamycin] | 0.12 µg/mL (≈ 0.131 µM) | 0.25 µg/mL (≈ 0.274 µM) | 0.004 µg/mL (≈ 0.00438 µM) | 0.00012 µg/mL (≈ 0.000131 µM) | 4 µg/mL (≈ 4.38 µM) |
| COC1C=COC2(C)Oc3c(C)c(O)c4c(=O)c(c5sc6cc(N7CC(C)NC(C)C7)ccc6nc-5c4c3C2=O)NC(=O)C(C)=CC=CC(C)C(O)C(C)C(O)C(C)C(O)C1C [Compound 65, 25-O-deacetyl-5′-[(3R,5S)-3,5-dimethyl-1-piperazinyl]benzthiazinorifamycin] | 0.12 µg/mL (≈ 0.138 µM) | 0.12 µg/mL (≈ 0.138 µM) | 0.002 µg/mL (≈ 0.0023 µM) | 0.00025 µg/mL (≈ 0.000287 µM) | 2 µg/mL (≈ 2.3 µM) |
| COC1C=COC2(C)Oc3c(C)c(O)c4c(=O)c(c5oc6cc(N7CCC(CCO)CC7)cc(O)c6nc-5c4c3C2=O)NC(=O)C(C)=CC=CC(C)C(O)C(C)C(O)C(C)C(O)C1C (centres unmarked) [Compound 66, 25-O-deacetyl-3′-hydroxy-5′-[4-(2-hydroxyethyl)-1-piperidinyl]benzoxazinorifamycin] | 0.12 µg/mL (≈ 0.135 µM) | 0.12 µg/mL (≈ 0.135 µM) | 0.004 µg/mL (≈ 0.00451 µM) | 0.0005 µg/mL (≈ 0.000564 µM) | 4 µg/mL (≈ 4.51 µM) |
| CCCS(=O)(=O)NC1CCN(c2cc(O)c3nc4c5c6c7c(C)c(O)c5c(=O)c(c-4oc3c2)NC(=O)C(C)=CC=CC(C)C(O)C(C)C(O)C(C)C(O)C(C)C(OC)C=COC(C)(O7)C6=O)CC1 (centres unmarked) [Compound 67] | 0.5 µg/mL (≈ 0.519 µM) | 0.12 µg/mL (≈ 0.125 µM) | 0.008 µg/mL (≈ 0.00831 µM) | 0.001 µg/mL (≈ 0.00104 µM) | >8 µg/mL |
| COC1C=COC2(C)Oc3c(C)c(O)c4c(=O)c(c5sc6cc(N7CC(C)N(CC8CC8)CC7C)ccc6nc-5c4c3C2=O)NC(=O)C(C)=CC=CC(C)C(O)C(C)C(O)C(C)C(OC(C)=O)C1C [Compound 68, 5′-[(2S,5R)-4-(cyclopropylmethyl)-2,5-dimethylpiperazinyl]benzthiazinorifamycin] | 2 µg/mL (≈ 2.07 µM) | 0.5 µg/mL (≈ 0.517 µM) | 0.06 µg/mL (≈ 0.062 µM) | 0.0005 µg/mL (≈ 0.000517 µM) | >8 µg/mL |
| COC1C=COC2(C)Oc3c(C)c(O)c4c(=O)c(c5sc6cc(N7CCC(N(C)C)CC7)ccc6nc-5c4c3C2=O)NC(=O)C(C)=CC=CC(C)C(O)C(C)C(O)C(C)C(OC(C)=O)C1C (centres unmarked) [Compound 69, 5′-[4-N,N-dimethylamino-1-piperidinyl]benzthiazinorifamycin] | 0.5 µg/mL (≈ 0.539 µM) | 0.5 µg/mL (≈ 0.539 µM) | 0.015 µg/mL (≈ 0.0162 µM) | 0.00025 µg/mL (≈ 0.00027 µM) | 4 µg/mL (≈ 4.31 µM) |
| COC1C=COC2(C)Oc3c(C)c(O)c4c(=O)c(c5sc6cc(N7CC(C)N(CC8CC8)CC7C)ccc6nc-5c4c3C2=O)NC(=O)C(C)=CC=CC(C)C(O)C(C)C(O)C(C)C(O)C1C [Compound 70, 25-O-deacetyl-5′-[(2S,5R)-4-(cyclopropylmethyl)-2,5-dimethylpiperazinyl]benzthiazinorifamycin] | 1 µg/mL (≈ 1.08 µM) | 1 µg/mL (≈ 1.08 µM) | 0.03 µg/mL (≈ 0.0324 µM) | 0.001 µg/mL (≈ 0.00108 µM) | >8 µg/mL |
| COC1C=COC2(C)Oc3c(C)c(O)c4c(=O)c(c5oc6cc(N7CCC(C)(N(C)C)CC7)cc(O)c6nc-5c4c3C2=O)NC(=O)C(C)=CC=CC(C)C(O)C(C)C(O)C(C)C(OC(C)=O)C1C (centres unmarked) [Compound 71, 3′-hydroxy-5′-[4-methyl-4-N,N-dimethylamino-1-piperidinyl]benzoxazinorifamycin] | 0.25 µg/mL (≈ 0.266 µM) | 0.5 µg/mL (≈ 0.531 µM) | 0.008 µg/mL (≈ 0.0085 µM) | 0.00012 µg/mL (≈ 0.000128 µM) | 4 µg/mL (≈ 4.25 µM) |
| COC1C=COC2(C)Oc3c(C)c(O)c4c(=O)c(c5oc6cc(N7CCC(C)(NC(C)=O)CC7)cc(O)c6nc-5c4c3C2=O)NC(=O)C(C)=CC=CC(C)C(O)C(C)C(O)C(C)C(OC(C)=O)C1C (centres unmarked) [Compound 72, 3′-hydroxy-5′-[4-methyl-4-acetylamino-1-piperidinyl]benzoxazinorifamycin] | 2 µg/mL (≈ 2.09 µM) | 0.5 µg/mL (≈ 0.524 µM) | 0.008 µg/mL (≈ 0.00838 µM) | 0.00025 µg/mL (≈ 0.000262 µM) | >8 µg/mL |
| COC1C=COC2(C)Oc3c(C)c(O)c4c(=O)c(c5oc6cc(N7CCC(C)(N(C)C)CC7)cc(O)c6nc-5c4c3C2=O)NC(=O)C(C)=CC=CC(C)C(O)C(C)C(O)C(C)C(O)C1C (centres unmarked) [Compound 73, 25-O-deacetyl-3′-hydroxy-5′-[4-methyl-4-N,N-dimethylamino-1-piperidinyl]benzoxazinorifamycin] | 0.03 µg/mL (≈ 0.0334 µM) | 0.12 µg/mL (≈ 0.133 µM) | 0.002 µg/mL (≈ 0.00222 µM) | 0.00025 µg/mL (≈ 0.000278 µM) | 2 µg/mL (≈ 2.22 µM) |
| COC1C=COC2(C)Oc3c(C)c(O)c4c(=O)c(c5oc6cc(N7CCC(C)(NC(C)=O)CC7)cc(O)c6nc-5c4c3C2=O)NC(=O)C(C)=CC=CC(C)C(O)C(C)C(O)C(C)C(O)C1C (centres unmarked) [Compound 74, 25-O-deacetyl-3′-hydroxy-5′-[4-methyl-4-acetylamino-1-piperidinyl]benzoxazinorifamycin] | 0.5 µg/mL (≈ 0.548 µM) | 0.12 µg/mL (≈ 0.131 µM) | 0.03 µg/mL (≈ 0.0329 µM) | 0.001 µg/mL (≈ 0.0011 µM) | >8 µg/mL |
| COC1C=COC2(C)Oc3c(C)c(O)c4c(=O)c(c5oc6cc(N7CCC(N(C)C)C7)cc(O)c6nc-5c4c3C2=O)NC(=O)C(C)=CC=CC(C)C(O)C(C)C(O)C(C)C(OC(C)=O)C1C [Compound 75, 3′-hydroxy-5′-[(3R)—N,N-dimethylamino-1-pyrrolidinyl]benzoxazinorifamycin] | 0.12 µg/mL (≈ 0.131 µM) | 0.25 µg/mL (≈ 0.274 µM) | 0.002 µg/mL (≈ 0.00219 µM) | 0.00012 µg/mL (≈ 0.000131 µM) | 4 µg/mL (≈ 4.38 µM) |
| COC1C=COC2(C)Oc3c(C)c(O)c4c(=O)c(c5sc6cc(N7CCN8CCCC8C7)ccc6nc-5c4c3C2=O)NC(=O)C(C)=CC=CC(C)C(O)C(C)C(O)C(C)C(OC(C)=O)C1C [Compound 76, 5′-[(8aS)octahydropyrrolo [1,2-a]pyrazin-2-yl]benzthiazinorifamycin] | 0.5 µg/mL (≈ 0.54 µM) | 0.25 µg/mL (≈ 0.27 µM) | 0.008 µg/mL (≈ 0.00865 µM) | 0.00025 µg/mL (≈ 0.00027 µM) | 4 µg/mL (≈ 4.32 µM) |
| COC1C=COC2(C)Oc3c(C)c(O)c4c(=O)c(c5sc6cc(N7CCN8CCCC8C7)ccc6nc-5c4c3C2=O)NC(=O)C(C)=CC=CC(C)C(O)C(C)C(O)C(C)C(O)C1C [Compound 77, 25-O-deacetyl-5′-[(8aS)octahydropyrrolo[1,2-a]pyrazin-2-yl]benzthiazinorifamycin] | 0.25 µg/mL (≈ 0.283 µM) | 0.12 µg/mL (≈ 0.136 µM) | 0.002 µg/mL (≈ 0.00226 µM) | 0.00025 µg/mL (≈ 0.000283 µM) | 2 µg/mL (≈ 2.26 µM) |
| COC1C=COC2(C)Oc3c(C)c(O)c4c(=O)c(c5oc6cc(N7CCN(C)CC7)cc(O)c6nc-5c4c3C2=O)NC(=O)C(C)=CC=CC(C)C(O)C(C)C(O)C(C)C(O)C1C (centres unmarked) [Compound 82] | 0.015 µg/mL (≈ 0.0175 µM) | 0.25 µg/mL (≈ 0.292 µM) | 0.002 µg/mL (≈ 0.00233 µM) | 0.00012 µg/mL (≈ 0.00014 µM) | 4 µg/mL (≈ 4.67 µM) |
